In article PMC12154787, “Comprehensive Evaluation of the Effects of Hot Air Drying Temperature on the Chemical Composition, Flavor Characteristics and Biological Activity of Houttuynia cordata Thunb” (Foods, 2025):

What was measured:
[1] = Pharmacokinetics of HCT constituents in rat plasma after a single dose of HCT extract; format: in vivo, SD rats
Protocol: The quantification of target compounds was conducted using an LC-TQ5200 triple quadrupole mass spectrometer (Hexin Instruments, Guangzhou, China) coupled with a HILIC column (100 × 2.1 mm, 1.8 μm; ANPEL, Shanghai, China). Chromatographic separation was achieved under isocratic conditions with a mobile phase comprising (A) 0.1% formic acid in water and (B) acetonitrile (50:50, v/v) for 4 min at a flow rate of 0.3 mL/min. The column temperature was maintained at 30 °C with a 10 μL injection volume.
Mass spectrometric detection was performed in positive electrospray ionization (ESI) mode with multiple reaction monitoring (MRM). The optimized ion source parameters were as follows: drying gas temperature, 500 °C; spray voltage, 5500 V; nebulizer gas pressure, 70 psi (482.3 kPa); drying gas flow, 8 L/min; and curtain gas flow, 3 L/min. The collision cell operated with 0.4 mL/min collision gas flow under the following voltage settings: curtain plate 800 V, orifice 70 V, detector 2300 V, with cell entrance and exit voltages of 30 V and 1 V, respectively. All analyses were performed with three replicates (n = 3).
(§1) The animal study protocol was approved by the Animal Ethics Committee of Jiangxi University of Chinese Medicine (Approval No. TEMPOR20230112). A total of 24 female SD rats (200 ± 20 g) were obtained from the Laboratory Animal Center of Jiangxi University of Chinese Medicine (Nanchang, China). Prior to experimentation, the rats were acclimated for 7 days in an air-conditioned room maintained at 24 ± 1 °C with a 12 h light/dark cycle. After one week of acclimatization with ad libitum access to sterilized food and water, the rats were randomly divided into three groups (n = 8), including a negative control, FDH: freeze-dried HCT extract (treated with 600 mg/kg BW freeze-dried HCT extracts), 50H: 50 °C hot-air dried HCT extract (treated with 600 mg/kg BW 50 °C hot-air dried HCT extracts). Blood collection and the pretreatment of serum were conducted following our previously published protocols. The identification and quantification of metabolites in rat samples were performed using analytical methodologies consistent with those employed in our previous investigations.

[2] = Metabolite identification in rat serum by UPLC-LTQ-Orbitrap-MS2 after HCT extract; format: in vivo, SD rats; details: for Metabolite detected in Serum, 50H: 50H group (600 mg/kg BW 50 °C hot-air dried HCT extract); for Metabolite detected in Serum, FDH: FDH group (600 mg/kg BW freeze-dried HCT extract); as to all read-outs here: key: +: detected; —: undetected
Protocol: The chromatographic separation was performed on an ACQUITY UPLC BEH C18 column (2.1 × 100 mm, 1.7 μm) maintained at 25 °C. […] The mobile phase flow rate was maintained at 300 μL/min with a 2 μL injection volume.
Mass spectrometric detection was carried out using an LTQ-Orbitrap system equipped with a HESI-II source operating in both positive and negative ionization modes. Full scan MS data were acquired over m/z 50–2000 with mass resolution set to 30,000 (at m/z 400). For structural elucidation, data-dependent MS/MS scans were triggered using a normalized collision energy of 45 eV in the CID cell. The diode array detector was simultaneously monitored at 280 nm and 320 nm. All instrumental operations and data acquisition were controlled by Xcalibur v2.0 software (Thermo Scientific).
as §1, with “Prior to experimentation, the rats were acclimated for 7 days in an air-conditioned room maintained at 24 ± 1 °C with a 12 h light/dark cycle.” left out

[3] = female, SD, 50H: 600 mg/kg BW 50 °C hot-air dried HCT extract
[4] = female, SD, rat, plasma, 600 mg/kg, 50H: 600 mg/kg BW 50 °C hot-air dried HCT extract
[5] = female, SD, rat, plasma, 600 mg/kg, FDH: 600 mg/kg BW freeze-dried HCT extract
[6] = 50H: 600 mg/kg BW 50 °C hot-air dried HCT extract

Compound | Metabolite detected in Serum, 50H [2] | Metabolite detected in Serum, FDH [2] | AUC [1, 4] [µM·h] | AUC [1, 5] [µM·h] | Cmax [1, 5] [nM] | also measured
O=C(/C=C/c1ccc(O)c(O)c1)O[C@@H]1C[C@](O)(C(=O)O)C[C@@H](O)[C@H]1O [Chlorogenic acid, chlorogenic acid] | – | – | 0.222 ± 0.0225 | 0.231 ± 0.00787 | 104 ± 9.47 | Tmax [1, 3]: 1.5 h; Cmax [1, 4]: 84.4 ± 2.26 nM; half-life [1, 4]: 2.05 ± 0.62 h; half-life [1, 5]: 2.25 ± 0.7 h
Nc1ccc(CCC(=O)O)c(C(=O)O)c1 [M14] | + | + | – | – | – | –
COc1c(O)cc2oc(-c3ccc(O)cc3)cc(=O)c2c1O [M18, hispidulin] | – | + | – | – | – | –
O=c1cc(-c2ccc(O)cc2)oc2cc(O)cc(O)c12 [M23, apigenin] | – | + | – | – | – | –
CCCCCCCCCC(=O)CC(=O)O [M27, decanoyl acetic acid] | + | + | – | – | – | –
CCCCCCCCC=CCCCCCCCC(=O)O [M37, 9-octadecenoic acid] | + | + | – | – | – | –
O=c1c(O)c(-c2ccc(O)c(O)c2)oc2cc(O)cc(O)c12 [Quercetin, quercetin] | – | – | 2.32 ± 0.0574 | 2.551 ± 0.017 | 410 ± 12 | Cmax [1, 6]: 378 ± 21.4 nM; T1/2 [1, 6]: 7.28 ± 4.47 h; T1/2 ([1]; FDH: 600 mg/kg BW freeze-dried HCT extract): 4.46 ± 0.14 h; Tmax [1, 3]: 2 h
C[C@@H]1O[C@@H](OC[C@H]2O[C@@H](Oc3c(-c4ccc(O)c(O)c4)oc4cc(O)cc(O)c4c3=O)[C@H](O)[C@@H](O)[C@@H]2O)[C@H](O)[C@H](O)[C@H]1O [Rutin, rutin] | – | – | 0.277 ± 0.0123 | 0.328 ± 0.00568 | 136 ± 16 | Tmax [1, 3]: 1 h; Cmax [1, 4]: 125 ± 4.95 nM; half-life [1, 4]: 2.04 ± 0.5 h; half-life [1, 5]: 2.61 ± 1.23 h
O=C(O)[C@H]1O[C@@H](Oc2cc3oc(-c4ccc(O)cc4)cc(=O)c3c(O)c2O)[C@H](O)[C@@H](O)[C@@H]1O [Scutellarin, scutellarin] | – | – | 0.121 ± 0.00462 | 0.116 ± 0.00702 | 23.9 ± 3.17 | Tmax ([1]; female, SD, FDH: 600 mg/kg BW freeze-dried HCT extract): 1.5 h; Cmax [1, 4]: 22 ± 4.15 nM; half-life [1, 4]: 9.26 ± 4.35 h; half-life [1, 5]: 6.91 ± 0.65 h

The next lines start with results.

Metabolite detected in Serum, 50H [2] | Metabolite detected in Serum, FDH [2] | Compound | AUC [1, 4] [µM·h] | AUC [1, 5] [µM·h] | Cmax [1, 5] [nM] | also measured
+ | + | O=C(O)c1ccc(O)c(O)c1 [M2, protocatechuic acid] | – | – | – | –
+ | + | COc1cc(C(=O)O)ccc1OC(C)=O [M3, 4-acetyloxy-3-methoxybenzoic acid] | – | – | – | –
+ | + | O=C(O)CCc1ccc(O)c(O)c1 [M10, dihydrocaffeic acid] | – | – | – | –
+ | – | CC(O)CC(=O)O (stereo not shown) [M13, 3-hydroxybutyrate] | – | – | – | –
